Reference: patent US12377152B2, “Compounds for degrading alpha-synuclein aggregates and uses thereof” (APRINOIA THERAPEUTICS LIMITED, priority 2019, dated 2025)

These molecules were tested against α-synuclein aggregates (Homo sapiens (Human), UniProt P37840) (assay: ReNcell VM α-synuclein aggregation assay). Conditions: 24 hour treatment, differentiated ReNcell VM cells.
Type: cell-based
Description: The ReNcell VM α-synuclein aggregation assay was conducted at Charles River Laboratories (CRL). ReNcell VM is an immortalized human neural progenitor cell line derived from the ventral mesencephalon region of the brain. ReNcell VM cells were selected as in vitro cellular model for the α-synuclein aggregation assay, based on their growth features, differentiation potential into terminally differentiated neurons and amenability to adenoviral transduction. Aggregated human wild type α-synuclein was overexpressed through adenoviral delivery. Aggregated α-synuclein was detected with the aggregate-selective anti-α-synuclein antibody MJFR14 using immunocytochemistry; total α-synuclein levels were detected with Syn205 (α/β-synuclein-specific antibody).
The ReNcell VM α-synuclein aggregation assay was applied for compound screening to identify compounds capable of degrading α-synuclein aggregates. […] Immunoreactivity toward aggregated (MJFR14) and total α-synuclein (Syn205) was quantified using high content-based segmentation of immunoactive areas in immunocytochemical images (performed with the IN Cell 2200 (GE Healthcare)), followed by quantification of immunofluorescent intensity (performed by CRL's developed algorithm using IN Cell Developer Toolbox software).
Percentage effect (PE): Inhibition in comparison to BLANK (0.1% DMSO).
PE=100−(signal of compound/average signal BLANK)×100
Compound-induced cytotoxicity (% remaining cells)
% remaining cells=(nuclei count of compound/average nuclei count of BLANK)×100

Structure (SMILES)	inhibition of MJFR14 immunoreactivity
O=C1CCC(N2Cc3cc(OCCOCCNc4cc(-c5ccc(-c6nc7ccc(F)cc7s6)cc5)ccn4)ccc3C2=O)C(=O)N1 (stereo not drawn) [Compound 180948]	concentration-dependent inhibition

Same assay, conditions: ReNcell VM cells; read-out: Activity (DC50, concentration at which 50% of α-synuclein aggregates has been degraded)

Structure (SMILES)	DC50
Cc1ncsc1-c1ccc(CNC(=O)[C@@H]2C[C@@H](O)CN2C(=O)[C@@H](NC(=O)COCCOCCOCCOCCOCCNc2ccc(-c3ccc(-c4nc5ccc(N(C)C)cc5s4)cc3)cn2)C(C)(C)C)cc1 (racemic) [Compound 161598, rac-(2R,4S)—N-[[4-(4-methyl-1,3-thiazol-5-yl)phenyl]methyl]-4-oxidanyl-1-[rac-(2R)-2-[2-[2-[2-[2-[2-[2-[[5-[4-[6-(dimethylamino)-1,3-benzothiazol-2-yl]phenyl]pyridin-2-yl]amino]ethoxy]ethoxy]ethoxy]ethoxy]ethoxy]ethanoylamino]-3,3-dimethyl-butanoyl]pyrrolidine-2-carboxamide]	> 10 µM
CN(C)c1ccc(-c2ccc(-c3nc4ccc(NC(=O)CCOCCOc5ccc6c(c5)CN(C5CCC(=O)NC5=O)C6=O)cc4s3)c(C(F)(F)F)c2)cn1 (stereo not drawn) [Compound 132560]	> 10 µM
CN(C)c1ccc(-c2ccc(-c3cn4cc(OCCOCCOc5ccc6c(c5)C(=O)N(C5CCC(=O)NC5=O)C6=O)ccc4n3)cc2)c(F)n1 (stereo not drawn) [Compound 161111, 2-[2,6-bis(oxo)piperidin-3-yl]-5-[2-[2-[2-[4-[6-(dimethylamino)-2-fluoro-pyridin-3-yl]phenyl]imidazo[1,2-a]pyridin-6-yl]oxyethoxy]ethoxy]isoindole-1,3-dione]	> 10 µM
O=C1CCC(N2Cc3cc(OCCOCCNc4ccc(-c5ccc(-c6cc7ccncc7[nH]6)cc5)cn4)ccc3C2=O)C(=O)N1 (stereo not drawn) [Compound 165954]	> 10 µM
CN(C)c1ccc2nc(-c3ccc(-c4ccc(NCCOCCN5C(=O)CCC(N6Cc7cc(O)ccc7C6=O)C5=O)nc4)cc3)sc2c1 (stereo not drawn) [Compound 160624, 1-(2-(2-((5-(4-(6-(dimethylamino)benzo[d]thiazol-2-yl)phenyl)pyridin-2-yl)amino)ethoxy)ethyl)-3-(5-hydroxy-1-oxoisoindolin-2-yl)piperidine-2,6-dione]	> 10 µM
CN(C)c1ccc(-c2ccc(-c3nc4ccc(NCCCCCOc5ccc6c(c5)C(=O)N(C5CCC(=O)NC5=O)C6=O)cc4s3)cc2)cn1 (stereo not drawn) [Compound 161103, 2-[2,6-bis(oxo)piperidin-3-yl]-5-[5-[[2-[4-[6-(dimethylamino)-pyridin-3-yl]phenyl]-1,3-benzothiazol-6-yl]amino]pentoxy]isoindole-1,3-dione]	> 10 µM
CN(C)c1ccc(-c2ccc(-c3nc4ccc(OCCOCCOc5ccc6c(c5)CN(C5CCC(=O)NC5=O)C6=O)cc4o3)cc2)cn1 (stereo not drawn) [Compound 163365]	0.01 to 0.9 µM
CN1C(=O)CCC(N2Cc3cc(OCCOCCNc4ccc5nc(-c6ccc(-c7ccc(N(C)C)nc7)cc6C(F)(F)F)sc5c4)ccc3C2=O)C1=O (stereo not drawn) [Compound 133065]	> 10 µM
CN(C)c1ccc2nc(-c3ccc(-c4ccc(NCCOCCN5C(=O)CCC(N6C(=O)c7ccc(O)cc7C6=O)C5=O)nc4)cc3)sc2c1 (stereo not drawn) [Compound 170351]	0.9 to 10 µM
CN(C)c1ccc2nc(-c3ccc(-c4ccc(NCCOCCOc5ccc6c(c5)C(=O)N(C5CCC(=O)NC5=O)C6=O)nc4)cc3)sc2c1 (stereo not drawn) [Compound 170353]	> 10 µM
CN(C)c1ccc2nc(-c3ccc(-c4ccnc(NCCOCCOc5ccc6c(c5)CN(C5CCC(=O)NC5=O)C6=O)c4)cc3)sc2c1 (stereo not drawn) [Compound 165950]	> 10 µM
CN(C)c1ccc(-c2ccc(-c3nc4ccc(OCCOCCOCCOc5ccc6c(c5)CN(C5CCC(=O)NC5=O)C6=O)cc4s3)c(C(F)(F)F)c2)cn1 (stereo not drawn) [Compound 174251]	> 10 µM
CN(C)c1ccc(-c2ccc(-c3nc4ccc(NCCOCCOCCOCCOCCOCCNc5cccc6c5C(=O)N(C5CCC(=O)NC5=O)C6=O)cc4s3)cc2)cn1 (stereo not drawn) [Compound 170355]	> 10 µM
CN(C)c1ccc(-c2ccc(-c3nc4ccc(NC(=O)CCCOc5ccc6c(c5)CN(C5CCC(=O)NC5=O)C6=O)cc4s3)cc2)cn1 (stereo not drawn) [Compound 170742]	> 10 µM
Cc1ncsc1-c1ccc(CNC(=O)[C@@H]2C[C@@H](O)CN2C(=O)[C@@H](NC(=O)COCCOCCOc2ccc3nc(-c4ccc(-c5ccc(N(C)C)nc5)cc4C(F)(F)F)sc3c2)C(C)(C)C)cc1 [Compound 165554]	> 10 µM
COc1ccc2nc(-c3ccc(-c4ccc(NCCOCCOc5ccc6c(c5)CN(C5CCC(=O)NC5=O)C6=O)nc4)cc3)sc2c1 (stereo not drawn) [Compound 177039]	> 10 µM
CN(C)c1ccc(-c2ccc(-c3nc4ccc(OC(=O)CCOCCOc5ccc6c(c5)CN(C5CCC(=O)NC5=O)C6=O)cc4s3)cc2)cn1 (stereo not drawn) [Compound 175552]	> 10 µM
CN(C)c1ccc(-c2ccc(-c3nc4ccc(NCCOCCOc5ccc6c(c5)CN(C5CCC(=O)NC5=O)C6=O)cc4s3)cc2)cn1 (stereo not drawn) [Compound 160313, 3-[6-[2-[2-[[2-[4-[6-(dimethylamino)pyridin-3-yl]phenyl]-1,3-benzothiazol-6-yl]amino]ethoxy]ethoxy]-3-oxo-1H-isoindol-2-yl]piperidine-2,6-dione]	> 10 µM
COc1ccc2nc(-c3ccc(-c4ccnc(NCCOCCOc5ccc6c(c5)C(=O)N(C5CCC(=O)NC5=O)C6=O)c4)cc3)cn2c1 (stereo not drawn) [Compound 129975]	> 10 µM

Structure (SMILES)	DC50
O=C1CCC(N2Cc3cc(OCCOCCNc4cc(-c5ccc(-c6cn7cc(F)ccc7n6)cc5)ccn4)ccc3C2=O)C(=O)N1 (stereo not drawn) [Compound 165824]	> 10 µM
CN(C)c1ccc(-c2ccc(-c3nc4ccc(OCCCCC(=O)Nc5cccc6c5CN(C5CCC(=O)NC5=O)C6=O)cc4s3)cc2)cn1 (stereo not drawn) [Compound 189149]	> 10 µM
COc1cc(-c2ccc(N(C)C)nc2)ccc1-c1nc2ccc(NCCOCCOc3ccc4c(c3)CN(C3CCC(=O)NC3=O)C4=O)cc2s1 (stereo not drawn) [Compound 129071]	> 10 µM
CN(C)c1ccc(-c2ccc(-c3nc4ccc(NCCOCCNc5cccc6c5C(=O)N(C5CCC(=O)NC5=O)C6=O)cc4s3)cc2)cn1 (stereo not drawn) [Compound 170356]	> 10 µM
COc1ccc2nc(-c3ccc(-c4ccnc(NCCOCCOc5cccc6c5CN(C5CCC(=O)NC5=O)C6=O)c4)cc3)cn2c1 (stereo not drawn) [Compound 190753]	> 10 µM
CN(C)c1ccc(-c2ccc(-c3nc4ccc(NCCOCCOCCOCCOCCOCCOc5ccc6c(c5)CN(C5CCC(=O)NC5=O)C6=O)cc4s3)cc2)cn1 (stereo not drawn) [Compound 160273, 3-[6-[2-[2-[2-[2-[2-[2-[[2-[4-[6-(dimethylamino)pyridin-3-yl]phenyl]-1,3-benzothiazol-6-yl]amino]ethoxy]-ethoxy]ethoxy]ethoxy]ethoxy]ethoxy]-3-oxo-1H-isoindol-2-yl]piperidine-2,6-dione]	0.01 to 0.9 µM
CN(C)c1ccc2nc(-c3ccc(-c4ccc(NCCOCCOc5ccc6c(c5)CN(C5CCC(=O)NC5=O)C6=O)nc4)cc3)sc2c1 (stereo not drawn) [Compound 170352]	> 10 µM
COc1ccc2nc(-c3ccc(-c4ccc(NCCOCCOc5cccc6c5C(=O)N(C5CCC(=O)NC5=O)C6=O)nc4)cc3)sc2c1 (stereo not drawn) [Compound 177038]	> 10 µM
O=C1CCC(N2C(=O)c3ccc(OCCOCCNc4cc(-c5ccc(-c6nc7ccc(F)cc7s6)cc5)ccn4)cc3C2=O)C(=O)N1 (stereo not drawn) [Compound 165952]	> 10 µM
O=C1CCC(N2Cc3cc(OCCOCCNc4cc(-c5ccc(-c6nc7ccc(F)cc7s6)cc5)ccn4)ccc3C2=O)C(=O)N1 (stereo not drawn) [Compound 180948]	< 0.01 µM
CN(C)c1ccc(-c2ccc(-c3cn4cc(OCCOCCN5C(=O)CCC(N6C(=O)c7ccc(O)cc7C6=O)C5=O)ccc4n3)cc2)c(F)n1 (stereo not drawn) [Compound 170350]	0.9 to 10 µM
CN(C)c1ccc(-c2ccc(-c3nc4ccc(NCCOCCOc5ccc6c(c5)C(=O)N(C5CCC(=O)NC5=O)C6=O)cc4s3)cc2)cn1 (stereo not drawn) [Compound 160219, 2-[2,6-bis(oxo)piperidin-3-yl]-5-[2-[2-[[2-[4-[6-(dimethylamino)pyridin-3-yl]phenyl]-1,3-benzothiazol-6-yl]amino]ethoxy]ethoxy]isoindole-1,3-dione]	> 10 µM
CN1C(=O)CCC(N2Cc3cc(OCCOCCOc4ccc5nc(-c6ccc(-c7ccc(N(C)C)nc7)cc6)sc5c4)ccc3C2=O)C1=O (stereo not drawn) [Compound 177036]	> 10 µM
CN(C)c1ccc(-c2ccc(-c3cn4cc(OCCOCCOc5ccc6c(c5)CN(C5CCC(=O)NC5=O)C6=O)ccc4n3)cc2)c(F)n1 (stereo not drawn) [Compound 170450]	> 10 µM
O=C1CCC(N2C(=O)c3ccc(OCCOCCNc4ccc(-c5ccc(-c6cc7ccncc7[nH]6)cc5)cn4)cc3C2=O)C(=O)N1 (stereo not drawn) [Compound 170354]	0.01 to 0.9 µM
COc1ccc2nc(-c3ccc(-c4ccnc(NCCOCCOCC(=O)NC(C(=O)N5C[C@H](O)C[C@H]5C(=O)NCc5ccc(-c6scnc6C)cc5)C(C)(C)C)c4)cc3)cn2c1 (stereo partly drawn) [Compound 177685]	> 10 µM
CN(C)c1ccc(-c2ccc(-c3nc4ccc(NCCOCCOCCOCCOCCOCCOc5ccc6c(c5)C(=O)N(C5CCC(=O)NC5=O)C6=O)cc4s3)cc2)cn1 (stereo not drawn) [Compound 159985, 2-[2,6-bis(oxo)piperidin-3-yl]-5-[2-[2-[2-[2-[2-[2-[[2-[4-[6-(dimethylamino)-pyridin-3-yl]phenyl]-1,3-benzothiazol-6-yl]amino]ethoxy]ethoxy]ethoxy]ethoxy]ethoxy]-ethoxy]isoindole-1,3-dione]	> 10 µM
COc1ccc2nc(-c3ccc(-c4ccc(NCCOCCOc5ccc6c(c5)CN(C5CCC(=O)NC5=O)C6=O)nc4)cc3)cn2c1 (stereo not drawn) [Compound 177037]	0.9 to 10 µM
Cc1ncsc1-c1ccc(CNC(=O)[C@@H]2C[C@@H](O)CN2C(=O)[C@@H](NC(=O)COCCOCCNc2ccc3nc(-c4ccc(-c5ccc(N(C)C)nc5)cc4C(F)(F)F)sc3c2)C(C)(C)C)cc1 [Compound 180187]	> 10 µM
